# Results reported in patent US5283248A, “Amino substituted pyrimido[1,6-2]benzimidazoles” (priority 1989, dated 1994).
# Legend:
# DNA-gyrase = biological target: T1, DNA-gyrase (Escherichia coli, UniProt P0AES4+P0AES6); test: DNA-gyrase inhibition, supercoiling method (relaxed pUC18 or pUC19 plasmid DNA as substrate); assay type: biochemical; conditions: E. coli DNA-gyrase
# T1 construct: made in house; host or cells: E. coli N4186 and E. coli MK47
# Source text: The inhibitory action on the DNA-gyrase activity in bacteria can be determined, for example, by means of the supercoiling method described by R. Otter and N. R. Cozzarelli in Methods in Enzymology, Vol. 100, pp. 171-180 (1983). The DNA-gyrase used was isolated from E. coli N4186 and from the sub-unit B of E. coli MK47 (Mitsuchi et al., JBL 159, 9199-9201 (1984)). Relaxed pUC18 or pUC19 plasmid DNA was used as the substrate. The results determined in this test are compiled in the following Table, with the results being expressed as the MNC (maximum non-effective concentration) in μg/ml.
# Toxicity, LD50 = conditions: in vivo
# T1 sequence (P0AES4 whole entry, one chain of several): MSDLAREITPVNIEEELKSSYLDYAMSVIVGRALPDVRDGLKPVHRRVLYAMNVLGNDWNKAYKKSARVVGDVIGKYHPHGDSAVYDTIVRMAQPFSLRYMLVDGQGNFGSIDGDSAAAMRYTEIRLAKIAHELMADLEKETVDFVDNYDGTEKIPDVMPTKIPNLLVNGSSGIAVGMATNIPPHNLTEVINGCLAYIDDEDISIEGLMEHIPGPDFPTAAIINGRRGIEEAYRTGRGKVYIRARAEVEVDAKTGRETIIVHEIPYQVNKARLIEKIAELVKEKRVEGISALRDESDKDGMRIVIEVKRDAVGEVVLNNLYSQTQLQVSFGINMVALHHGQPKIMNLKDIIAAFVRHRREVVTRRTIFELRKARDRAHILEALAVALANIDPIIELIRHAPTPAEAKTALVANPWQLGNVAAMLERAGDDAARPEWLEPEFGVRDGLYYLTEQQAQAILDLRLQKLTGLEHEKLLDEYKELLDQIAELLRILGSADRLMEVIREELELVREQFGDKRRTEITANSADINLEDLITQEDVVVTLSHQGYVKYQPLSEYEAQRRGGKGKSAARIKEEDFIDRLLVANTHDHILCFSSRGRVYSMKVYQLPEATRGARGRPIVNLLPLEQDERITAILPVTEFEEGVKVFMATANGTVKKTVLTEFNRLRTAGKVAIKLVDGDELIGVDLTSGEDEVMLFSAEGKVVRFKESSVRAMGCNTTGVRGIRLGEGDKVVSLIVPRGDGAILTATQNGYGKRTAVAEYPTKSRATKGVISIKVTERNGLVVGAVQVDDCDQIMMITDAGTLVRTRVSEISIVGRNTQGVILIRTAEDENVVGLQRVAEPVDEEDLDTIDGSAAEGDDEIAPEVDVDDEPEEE
Structure (SMILES),Activity MNC (maximum non-effective concentration) (DNA-gyrase),"LD50 (Toxicity, LD50; iv)","LD50 (Toxicity, LD50; po)"
"CCn1c2cc(N3CCN(C)CC3)c(F)cc2n2c(=O)[nH]c(=O)cc12 [Example 1, 5-ethyl-8-fluoro-7-(4-methyl-1-piperazinyl)pyrimido[1,6-a]benzimidazole-1,3(2H,5H)-dione]",2 µg/mL,–,–
"O=C(O)C(F)(F)F.O=c1cc2n(C3CC3)c3cc(N4CCNCC4)c(F)cc3n2c(=O)[nH]1 [Example 2, 5-cyclopropyl-8-fluoro-7-(1-piperazinyl)-pyrimido[1,6-a]benzimidazole-1,3(2H,5H)-dione trifluoroacetate]",0.45 µg/mL,30 mg/kg,> 2000 mg/kg
CCn1c2cc(N3CCN(C)CC3)c(F)cc2n2c(=O)[nH]c(=S)cc12 [Example 3],2 µg/mL,–,–
"Cl.O=c1cc2n(C3CC3)c3cc(N4CCNCC4)c(F)cc3n2c(=O)n1O [Example 4, 5-cyclopropyl-8-fluoro-2-hydroxy-7-(1-piperazinyl)-pyrimido[1,6-a]benzimidazole-1,3(2H,5H)-dione hydrochloride]",2 µg/mL,30 mg/kg,> 4000 mg/kg
"CCn1c2cc(N3CCNCC3)c(F)cc2n2c(=O)[nH]c(=O)cc12 [Example 8, 5-ethyl-8-fluoro-7-(1-piperazinyl)pyrimido[1,6-a]benzimidazole-1,3(2H,5H)-dione]",1 µg/mL,–,–
